Assay results reported in PMC9049607 (Microbial Biotechnology, 2021).
Like-named read-outs stand apart in the source and are kept apart here.

Assays:
[1] = target: AdhE (Escherichia coli, UniProt P0A9Q7); test: NADH consumption at […] nm, specific activity; assay type: biochemical; conditions: 5 mM substrate, 0.2 mM NADH, 100 mM PBS pH 8.0, 30°C
[2] = target: T1, YahK (Escherichia coli, UniProt P75691); test: NADH consumption at […] nm, specific activity; assay type: biochemical; conditions: 5 mM substrate, 0.2 mM NADH, 100 mM PBS pH 8.0, 30°C
T1 sequence (P75691 1-349): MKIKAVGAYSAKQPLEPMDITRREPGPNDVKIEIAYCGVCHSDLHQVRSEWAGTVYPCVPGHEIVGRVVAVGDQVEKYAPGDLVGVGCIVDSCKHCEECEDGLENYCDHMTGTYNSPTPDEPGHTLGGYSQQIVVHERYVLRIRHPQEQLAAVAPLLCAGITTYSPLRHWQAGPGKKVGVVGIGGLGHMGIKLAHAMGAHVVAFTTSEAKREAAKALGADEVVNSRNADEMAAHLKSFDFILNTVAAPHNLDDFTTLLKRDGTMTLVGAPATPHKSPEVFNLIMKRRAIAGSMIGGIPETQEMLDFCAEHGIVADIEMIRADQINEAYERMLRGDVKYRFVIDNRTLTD

[3] = system: OYE2p; conditions: read-out: Enzyme / Y84V, 100 mM PBS pH 8.0, 30°C

Chain of AdhE (P0A9Q7 2-891): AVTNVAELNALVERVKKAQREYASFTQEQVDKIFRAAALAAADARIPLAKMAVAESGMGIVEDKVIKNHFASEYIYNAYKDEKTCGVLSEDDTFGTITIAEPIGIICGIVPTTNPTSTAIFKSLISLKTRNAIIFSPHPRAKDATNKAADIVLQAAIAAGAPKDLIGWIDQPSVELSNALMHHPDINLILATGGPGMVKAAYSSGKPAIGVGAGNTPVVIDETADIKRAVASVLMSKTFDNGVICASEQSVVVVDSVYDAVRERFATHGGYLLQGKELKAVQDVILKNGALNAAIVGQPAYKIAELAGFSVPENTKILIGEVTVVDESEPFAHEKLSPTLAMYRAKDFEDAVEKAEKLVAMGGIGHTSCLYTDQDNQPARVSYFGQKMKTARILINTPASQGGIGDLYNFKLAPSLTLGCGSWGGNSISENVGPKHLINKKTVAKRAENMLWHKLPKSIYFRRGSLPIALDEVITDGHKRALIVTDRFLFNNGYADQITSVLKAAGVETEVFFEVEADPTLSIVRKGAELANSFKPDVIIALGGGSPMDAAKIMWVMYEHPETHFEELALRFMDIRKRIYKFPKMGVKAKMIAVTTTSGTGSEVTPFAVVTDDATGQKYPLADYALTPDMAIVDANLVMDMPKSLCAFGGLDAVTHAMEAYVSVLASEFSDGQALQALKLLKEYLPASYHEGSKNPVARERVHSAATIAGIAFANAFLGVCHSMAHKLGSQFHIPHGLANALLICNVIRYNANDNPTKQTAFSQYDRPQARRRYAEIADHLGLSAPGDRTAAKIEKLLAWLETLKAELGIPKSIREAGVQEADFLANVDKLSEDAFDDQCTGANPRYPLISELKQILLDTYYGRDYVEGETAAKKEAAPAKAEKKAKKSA

Compound	NADH consumption at 340 nm, specific activity [1]	NADH consumption at 340 nm, specific activity [2]	Km ([3]; 5 mM (E/Z)-citral) [µM]	Km ([3]; 0.2 mM NADH) [µM]
CC(C)=CCCC(C)CC=O (stereo not drawn) [citronellal]	approximately twice higher than that of AdhE and YahK	approximately twice higher than that of AdhE and YahK	–	–
NC(=O)C1=CN([C@@H]2O[C@H](COP(=O)(O)OP(=O)(O)OC[C@H]3O[C@@H](n4cnc5c(N)ncnc54)[C@H](O)[C@@H]3O)[C@@H](O)[C@H]2O)C=CC1 [NADH]	–	–	27 ± 8	–
CC(C)=CCC/C(C)=C\C=O [(Z)-citral]	–	–	–	326 ± 84
CC(C)=CCC/C(C)=C/C=O [(E)-citral]	these enzymes have catalytic activity for the tested substrates	–	–	107 ± 26
